What all share (type): physicochemical
A short description of series [1]: Solubility study in artificial gastric fluid (saturated solutions, HPLC linear equation; Pharmacopoeia and BCS classification). To be noted: for Pharmacopoeia of the People's Republic of China Solubility level / Solubility in artificial gastric fluid, 1 h / Solubility in artificial gastric fluid, 4 h / Solubility in artificial gastric fluid, 24 h / BCS level (Do): artificial gastric fluid; for Solubility in artificial gastric fluid compared with water: artificial gastric fluid versus water; for Solubility in artificial gastric fluid, 1 h / Solubility in artificial gastric fluid, 4 h / Solubility in artificial gastric fluid, 24 h: saturated solution; for Solubility in artificial gastric fluid, 1 h: standing 1 hour; for Solubility in artificial gastric fluid, 4 h: standing 4 hours; for Solubility in artificial gastric fluid, 24 h: standing 24 hours; for BCS level (Do): Do=(Mo/Vo)/Cs, Mo 80 mg, Vo about 250 ml, Do≤1 solubility high, Do>1 low; for Degradation in the solubility study: water and artificial gastric fluid, up to 24 hours. An excerpt:
(§1) Various pharmaceutically acceptable salts of EGFR inhibitor present in form of crystal in Examples 1 to 3 and 5 to 6 were classified with reference to the relevant requirements of the Pharmacopoeia of the People's Republic of China and the Bio-pharmaceutics Classification System (BCS).
(§2) (a) Relevant Requirements of Solubility in the Pharmacopoeia of the People's Republic of China, 2015 Edition, General Notices:
(§3) (b) Relevant Requirements of Solubility in BCS: Do=(Mo/Vo)/Cs;
(§4) wherein Do: dose index; Mo: highest single dose of the drug (with reference to the relevant dose of osimertinib, tentatively set to 80 mg); Vo: the volume of body fluid required for dissolving the drug (about 250 ml); Cs: saturated solubility of the drug;
(§5) if Do≤1, solubility is high; and if Do>1, solubility is low.
(§6) Using an EGFR inhibitor free base as a control, linear regression was carried out by plotting peak area versus concentration, and the corresponding linear equation was obtained in the range of 0.025 to 1.5 mg/ml: A=19775.0411c+2.4256, r=1.0000.
Artificial gastric fluid was used as solvent. An appropriate amount of the EGFR inhibitor mesylate salt (crystal form A), p-toluenesulfonate salt (crystal form B), phosphate salt (crystal form C), phosphate salt (amorphous), hydrochloride salt (crystal form C), and citrate salt (crystal form E) prepared in Examples 1 to 6 was weighed, and prepared into saturated solutions. Samples were taken after standing for 1 hour, 4 hours, and 24 hours, respectively, and the concentration of each sample in saturation state was calculated according to the linear equation.

Series [2] can be described thus: Solubility study in water (saturated solutions, HPLC linear equation; Pharmacopoeia and BCS classification). To be noted: for BCS level (Do): Do=(Mo/Vo)/Cs, Mo 80 mg, Vo about 250 ml, Do≤1 solubility high, Do>1 low; for Solubility in water, 1 h / Solubility in water, 4 h / Solubility in water, 24 h: saturated solution; for Solubility in water, 1 h: standing 1 hour; for Solubility in water, 4 h: standing 4 hours; for Solubility in water, 24 h: standing 24 hours.
Excerpt: as §1, §2, §3, §4, §5, §6
Water was used as solvent. An appropriate amount of the EGFR inhibitor mesylate salt, p-toluenesulfonate salt, phosphate salt, hydrochloride salt and citrate salt prepared in Examples 1 to 3 and 5 to 6 was weighed, and prepared into saturated solutions. Samples were taken after standing for 1 hour, 4 hours, and 24 hours, respectively, and the concentration of each sample in saturation state was calculated according to the linear equation.

A short description of series [3]: One month accelerated stability study at 40° C./75% RH (shape, purity, XRPD). The note with it: for XRPD pattern (0 month versus 1 month) / Appearance, 1 month / Purity (%), 1 month: after 1 month at 40° C./75% RH; for Appearance, 0 month / Purity (%), 0 month: start of study (0 month). As for the experimental part:
The six pharmaceutically acceptable salts of EGFR inhibitor in Examples 1 to 6 were placed in a condition of 40° C./75% RH, and a one month accelerated stability study was carried out. Samples were taken at the end of 0 and 1 month respectively, and emphasis was placed upon the shape, purity and crystal form stability (XRPD pattern) of the samples.
Stable refers to no occurrence of degradation and no detection of transformation to other crystal forms by analytical means such as chromatography and XRPD.

A short description of series [4]: Solubility study in water (saturated solutions, HPLC linear equation; Pharmacopoeia and BCS classification). To be noted: in water and artificial gastric fluid.
Series [5] is described as follows: Hygroscopicity study of crystal forms (Chinese Pharmacopoeia 2015, part 4, appendix 9103). The note with it: for Hygroscopicity as compared with that of the EGFR inhibitor present in a free base form: 25° C./RH 80%; for Weight gain over 6 hours (%) / Weight gain over 24 hours (%) / Hygroscopicity: 25° C.±1° C., relative humidity 80%±2%; for Hygroscopicity: Pharmacopoeia class. As to the method:
Hygroscopicity comparison study was carried out for various pharmaceutically acceptable salts of EGFR inhibitor present in the form of crystal in Examples 1 to 3 and 5 to 6, the amorphous EGFR inhibitor phosphate salt in Example 4, and the EGFR inhibitor present in a free base form. Tests were conducted according to the method in the Pharmacopoeia of the People's Republic of China, 2015 edition, part 4, appendix 9103 (temperature: 25° C.±1° C., relative humidity: 80%±2%), and the results were as shown in Table 6.
With regard to the description of hygroscopic properties and definition of hygroscopic weight gain, refer to the Pharmacopoeia of the People's Republic of China, 2015 edition, part 4, appendix 9103, experimental guideline of drug hygroscopicity, herein descried by way of example as follows.
Deliquescence: absorb enough water to form a liquid.
Very hygroscopic: hygroscopic weight gain […] 15%.
Hygroscopic: hygroscopic weight gain less than 15% but not less than 2%.
Non- or almost non-hygroscopic: hygroscopic weight gain less than 0.2%.

The mark [6] stands for this setting: listed as mesylate salt (crystal form A).
The mark [7] stands for this setting: listed as citrate salt (crystal form E).

Counter-ions that a name gives are not always drawn.

With `C=CC(=O)Nc1cc(Nc2nccc(-c3cn(C)c4cccnc34)n2)c(OC)cc1N(C)CCN(C)C` [mesylate salt], in series [1], the “Pharmacopoeia of the People's Republic of China Solubility level” value (“Pharmacopoeia … of China Solubility level” below) is recorded as “freely soluble”; the “Solubility in artificial gastric fluid compared with water” value is listed as “higher solubility in artificial gastric fluid than in water”; the “Solubility in artificial gastric fluid, 1 h” value turned out to be 248.77 mg/mL; the “Solubility in artificial gastric fluid, 4 h” value was found to be 370.37 mg/mL. Besides, in series [1], the “Solubility in artificial gastric fluid, 24 h” value is 379.12 mg/mL; the “BCS level (Do)” value is on record as 0.0008 < 1; the “Degradation in the solubility study” value is on record as “no significant degradation”. Also, in series [2], the “Pharmacopoeia … of China Solubility level” value is given as “freely soluble”; the “BCS level (Do)” value is reported as 0.0013 < 1; the “Solubility in water, 1 h” value came out at 223.02 mg/mL; the “Solubility in water, 4 h” value worked out at 224.00 mg/mL. In series [2], the “Solubility in water, 24 h” value was determined as 255.75 mg/mL. For the same compound, in series [3], the “XRPD pattern (0 month versus 1 month)” value is listed as “consistent”. Further, in series [3] (setting [6]), the “Appearance, 1 month” value is reported as “light brown solid”; the “Purity (%), 1 month” value came to 99.2%; the “Appearance, 0 month” value is “light brown solid”; the “Purity (%), 0 month” value was determined as 99.0%. Besides, in series [4], the “Solubility with reference to Pharmacopoeia solubility classification” value is “high”. Also, the “Hygroscopicity as compared with that of the EGFR inhibitor present in a free base form” value in series [5] (listed as mesylate salt crystal form A) was “higher hygroscopicity”. Also, in series [5], the “Weight gain over 6 hours (%)” value was determined as 6.86%, the “Weight gain over 24 hours (%)” value is 10.64% and the Hygroscopicity entry is “hygroscopic”.

Turning to `C=CC(=O)Nc1cc(Nc2nccc(-c3cn(C)c4cccnc34)n2)c(OC)cc1N(C)CCN(C)C` [citrate salt], in series [1], the “Pharmacopoeia … of China Solubility level” value is on record as “freely soluble”; the “Solubility in artificial gastric fluid compared with water” value is reported as “higher solubility in artificial gastric fluid than in water”; the “Solubility in artificial gastric fluid, 1 h” value is 168.51 mg/mL; the “Solubility in artificial gastric fluid, 4 h” value was found to be 196.47 mg/mL. Besides, in series [1], the “Solubility in artificial gastric fluid, 24 h” value was 176.88 mg/mL; the “BCS level (Do)” value is given as 0.0018 < 1; the “Degradation in the solubility study” value is recorded as “no significant degradation”. Moreover, in series [2], the “Pharmacopoeia … of China Solubility level” value was “freely soluble”; the “BCS level (Do)” value was 0.0024 < 1; the “Solubility in water, 1 h” value was 143.59 mg/mL; the “Solubility in water, 4 h” value was determined as 137.34 mg/mL. The “Solubility in water, 24 h” value in series [2] is 133.57 mg/mL. Further, the “XRPD pattern (0 month versus 1 month)” value in series [3] is “consistent”. In series [3] (setting [7]), the “Appearance, 1 month” value is reported as “light grey solid”; the “Purity (%), 1 month” value is listed as 99.1%; the “Appearance, 0 month” value was “light grey solid”; the “Purity (%), 0 month” value turned out to be 98.9%. Besides, the “Solubility with reference to Pharmacopoeia solubility classification” value in series [4] is “high”. For the same compound, in series [5] (listed as citrate salt crystal form E), the “Hygroscopicity as compared with that of the EGFR inhibitor present in a free base form” value is reported as “comparable hygroscopicity”. In series [5], the “Weight gain over 6 hours (%)” value is given as 2.23%, the “Weight gain over 24 hours (%)” value came out at 2.48% and the Hygroscopicity result is listed as “hygroscopic”.

The record behind these values is patent publication US10759797B2, “Pharmaceutically acceptable salt of EGFR inhibitor, crystal form thereof, preparation method therefor and application thereof” (Wuxi Shuangliang Biotechnology Co., Ltd., priority 2017, dated 2020).
